Experimental data reported in ChEMBL document CHEMBL1134625 (J Med Chem, 2001).

Assays:
[1] = target: T1, 5-hydroxytryptamine receptor 1A (Homo sapiens, UniProt P08908)
T1 sequence (P08908 whole entry): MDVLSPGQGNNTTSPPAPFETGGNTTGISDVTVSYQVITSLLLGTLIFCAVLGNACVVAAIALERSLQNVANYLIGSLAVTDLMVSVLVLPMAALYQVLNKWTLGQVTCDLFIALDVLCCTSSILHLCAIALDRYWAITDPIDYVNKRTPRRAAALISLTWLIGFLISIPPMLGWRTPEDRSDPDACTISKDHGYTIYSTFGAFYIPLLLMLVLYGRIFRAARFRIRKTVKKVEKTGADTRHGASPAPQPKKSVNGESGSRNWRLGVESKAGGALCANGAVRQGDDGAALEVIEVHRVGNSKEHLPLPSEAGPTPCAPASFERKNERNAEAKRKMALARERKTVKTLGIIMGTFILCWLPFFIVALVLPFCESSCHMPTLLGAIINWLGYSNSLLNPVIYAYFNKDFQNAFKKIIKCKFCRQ

[2] = target: 5-hydroxytryptamine receptor 2A (Homo sapiens, UniProt P28223)
Sequence of 5-hydroxytryptamine receptor 2A (P28223 whole entry): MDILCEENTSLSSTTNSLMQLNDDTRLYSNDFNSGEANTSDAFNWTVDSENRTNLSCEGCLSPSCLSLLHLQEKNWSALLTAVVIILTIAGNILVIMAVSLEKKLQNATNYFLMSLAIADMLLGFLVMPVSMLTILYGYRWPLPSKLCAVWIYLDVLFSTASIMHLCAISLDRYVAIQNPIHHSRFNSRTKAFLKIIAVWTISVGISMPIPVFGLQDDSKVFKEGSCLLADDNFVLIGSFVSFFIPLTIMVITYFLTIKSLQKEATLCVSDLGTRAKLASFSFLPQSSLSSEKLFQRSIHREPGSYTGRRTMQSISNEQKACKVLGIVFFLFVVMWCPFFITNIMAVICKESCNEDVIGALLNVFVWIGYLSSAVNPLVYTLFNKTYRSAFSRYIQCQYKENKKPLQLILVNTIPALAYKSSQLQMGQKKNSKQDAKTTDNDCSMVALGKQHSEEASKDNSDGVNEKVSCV

[3] = target: T2, 5-hydroxytryptamine receptor 2C (Homo sapiens, UniProt P28335)
T2 sequence (P28335 whole entry): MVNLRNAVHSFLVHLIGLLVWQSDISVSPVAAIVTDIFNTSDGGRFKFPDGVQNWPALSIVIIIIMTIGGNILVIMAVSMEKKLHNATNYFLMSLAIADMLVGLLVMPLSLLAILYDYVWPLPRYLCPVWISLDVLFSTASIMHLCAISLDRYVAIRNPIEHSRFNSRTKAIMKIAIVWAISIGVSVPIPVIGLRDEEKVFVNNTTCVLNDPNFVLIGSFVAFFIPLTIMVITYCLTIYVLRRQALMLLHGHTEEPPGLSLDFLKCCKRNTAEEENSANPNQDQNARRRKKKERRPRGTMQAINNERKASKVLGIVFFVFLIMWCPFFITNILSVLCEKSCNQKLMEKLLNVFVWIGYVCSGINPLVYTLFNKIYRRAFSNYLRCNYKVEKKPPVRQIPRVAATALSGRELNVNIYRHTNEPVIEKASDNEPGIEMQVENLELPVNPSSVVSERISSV

[4] = target: 5-hydroxytryptamine receptor 6 (Homo sapiens, UniProt P50406)
Sequence of 5-hydroxytryptamine receptor 6 (P50406 whole entry): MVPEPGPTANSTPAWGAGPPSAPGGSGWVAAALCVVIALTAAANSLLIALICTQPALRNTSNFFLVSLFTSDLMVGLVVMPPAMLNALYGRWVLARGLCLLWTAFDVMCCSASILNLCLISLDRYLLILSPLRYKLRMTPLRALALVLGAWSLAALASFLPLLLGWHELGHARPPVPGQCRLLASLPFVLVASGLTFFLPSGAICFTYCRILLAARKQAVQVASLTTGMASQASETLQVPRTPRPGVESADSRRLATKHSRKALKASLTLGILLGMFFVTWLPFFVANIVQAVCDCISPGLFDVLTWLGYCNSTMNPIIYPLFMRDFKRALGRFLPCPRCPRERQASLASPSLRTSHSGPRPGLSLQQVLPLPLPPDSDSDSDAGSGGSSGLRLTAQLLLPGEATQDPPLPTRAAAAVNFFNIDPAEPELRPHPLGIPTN

[5] = target: 5-hydroxytryptamine receptor 7 (Homo sapiens, UniProt P34969)
Sequence of 5-hydroxytryptamine receptor 7 (P34969 whole entry): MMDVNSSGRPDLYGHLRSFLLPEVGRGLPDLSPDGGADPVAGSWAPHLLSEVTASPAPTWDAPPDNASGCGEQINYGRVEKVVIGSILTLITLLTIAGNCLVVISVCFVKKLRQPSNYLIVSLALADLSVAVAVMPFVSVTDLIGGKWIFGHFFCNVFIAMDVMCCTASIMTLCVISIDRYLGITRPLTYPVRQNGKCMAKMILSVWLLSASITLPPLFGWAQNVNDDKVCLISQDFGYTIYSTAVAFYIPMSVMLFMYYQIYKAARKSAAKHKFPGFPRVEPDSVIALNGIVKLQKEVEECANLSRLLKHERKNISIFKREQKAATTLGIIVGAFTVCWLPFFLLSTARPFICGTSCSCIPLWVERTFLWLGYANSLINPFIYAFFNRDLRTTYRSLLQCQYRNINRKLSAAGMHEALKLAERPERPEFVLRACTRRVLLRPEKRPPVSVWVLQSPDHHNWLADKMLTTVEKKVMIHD

Adenosine receptor A3 = target: T3, Adenosine receptor A3 (Homo sapiens, UniProt P0DMS8)
T3 sequence (P0DMS8 whole entry): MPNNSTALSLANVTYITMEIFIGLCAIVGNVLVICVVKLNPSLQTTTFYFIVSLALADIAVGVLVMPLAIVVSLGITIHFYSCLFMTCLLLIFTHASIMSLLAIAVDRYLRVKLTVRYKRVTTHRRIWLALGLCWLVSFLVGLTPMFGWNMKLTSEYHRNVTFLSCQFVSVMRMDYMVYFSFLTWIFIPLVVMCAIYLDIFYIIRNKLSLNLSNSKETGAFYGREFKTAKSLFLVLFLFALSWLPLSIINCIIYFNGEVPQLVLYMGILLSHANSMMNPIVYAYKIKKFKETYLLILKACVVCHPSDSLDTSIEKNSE

D(3) dopamine receptor = D(3) dopamine receptor (Homo sapiens, UniProt P35462)
Sequence of D(3) dopamine receptor (P35462 whole entry): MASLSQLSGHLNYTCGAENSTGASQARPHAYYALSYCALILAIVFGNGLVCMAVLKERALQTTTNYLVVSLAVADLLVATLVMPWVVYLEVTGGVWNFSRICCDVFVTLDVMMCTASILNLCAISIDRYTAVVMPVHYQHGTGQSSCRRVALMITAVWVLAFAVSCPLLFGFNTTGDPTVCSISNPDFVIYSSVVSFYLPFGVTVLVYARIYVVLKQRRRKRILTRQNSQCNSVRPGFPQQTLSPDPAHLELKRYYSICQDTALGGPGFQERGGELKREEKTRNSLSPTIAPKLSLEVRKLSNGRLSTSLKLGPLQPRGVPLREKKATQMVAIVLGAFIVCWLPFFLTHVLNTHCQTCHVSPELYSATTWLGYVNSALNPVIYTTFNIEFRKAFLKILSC

D(4) dopamine receptor = target: T4, D(4) dopamine receptor (Homo sapiens, UniProt P21917)
T4 sequence (P21917 whole entry): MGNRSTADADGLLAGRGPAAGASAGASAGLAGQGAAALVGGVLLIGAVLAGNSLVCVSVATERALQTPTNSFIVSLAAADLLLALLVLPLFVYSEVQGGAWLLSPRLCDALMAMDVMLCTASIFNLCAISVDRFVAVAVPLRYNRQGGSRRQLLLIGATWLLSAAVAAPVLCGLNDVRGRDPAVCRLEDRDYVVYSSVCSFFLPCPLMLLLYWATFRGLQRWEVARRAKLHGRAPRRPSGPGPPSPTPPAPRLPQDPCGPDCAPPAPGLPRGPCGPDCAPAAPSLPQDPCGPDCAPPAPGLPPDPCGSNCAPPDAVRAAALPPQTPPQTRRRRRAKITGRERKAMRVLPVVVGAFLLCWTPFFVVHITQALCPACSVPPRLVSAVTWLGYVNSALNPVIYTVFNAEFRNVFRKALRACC

D(2) dopamine receptor = D(2) dopamine receptor (Homo sapiens, UniProt P14416)
Sequence of D(2) dopamine receptor (P14416 whole entry): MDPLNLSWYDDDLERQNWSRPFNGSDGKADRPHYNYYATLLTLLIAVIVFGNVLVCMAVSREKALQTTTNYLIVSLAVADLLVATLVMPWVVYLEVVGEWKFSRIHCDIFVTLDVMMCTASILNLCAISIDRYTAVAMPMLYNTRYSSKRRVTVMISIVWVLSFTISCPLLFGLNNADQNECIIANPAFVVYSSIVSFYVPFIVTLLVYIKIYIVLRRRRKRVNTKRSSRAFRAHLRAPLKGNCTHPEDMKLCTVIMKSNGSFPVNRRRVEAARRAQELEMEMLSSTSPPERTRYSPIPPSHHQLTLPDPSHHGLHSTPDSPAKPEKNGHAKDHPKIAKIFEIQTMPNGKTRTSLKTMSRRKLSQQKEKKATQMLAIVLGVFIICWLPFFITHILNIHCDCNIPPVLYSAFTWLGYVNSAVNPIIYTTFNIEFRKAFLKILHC

D(1B) dopamine receptor = D(1B) dopamine receptor (Homo sapiens, UniProt P21918)
Sequence of D(1B) dopamine receptor (P21918 whole entry): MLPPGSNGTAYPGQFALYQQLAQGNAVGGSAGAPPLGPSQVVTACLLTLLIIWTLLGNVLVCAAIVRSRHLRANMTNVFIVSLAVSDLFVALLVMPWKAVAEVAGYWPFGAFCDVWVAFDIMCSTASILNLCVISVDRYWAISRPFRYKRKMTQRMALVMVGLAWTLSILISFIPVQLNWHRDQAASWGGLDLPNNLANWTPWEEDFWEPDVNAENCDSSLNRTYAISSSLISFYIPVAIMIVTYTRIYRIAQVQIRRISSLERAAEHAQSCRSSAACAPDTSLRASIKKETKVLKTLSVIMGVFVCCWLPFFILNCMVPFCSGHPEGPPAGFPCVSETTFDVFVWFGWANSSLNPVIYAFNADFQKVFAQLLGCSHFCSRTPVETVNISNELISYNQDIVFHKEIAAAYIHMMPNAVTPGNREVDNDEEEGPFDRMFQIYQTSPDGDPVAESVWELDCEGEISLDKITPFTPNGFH

[6] = target: T5, Sodium-dependent dopamine transporter (Homo sapiens, UniProt Q01959)
T5 sequence (Q01959 whole entry): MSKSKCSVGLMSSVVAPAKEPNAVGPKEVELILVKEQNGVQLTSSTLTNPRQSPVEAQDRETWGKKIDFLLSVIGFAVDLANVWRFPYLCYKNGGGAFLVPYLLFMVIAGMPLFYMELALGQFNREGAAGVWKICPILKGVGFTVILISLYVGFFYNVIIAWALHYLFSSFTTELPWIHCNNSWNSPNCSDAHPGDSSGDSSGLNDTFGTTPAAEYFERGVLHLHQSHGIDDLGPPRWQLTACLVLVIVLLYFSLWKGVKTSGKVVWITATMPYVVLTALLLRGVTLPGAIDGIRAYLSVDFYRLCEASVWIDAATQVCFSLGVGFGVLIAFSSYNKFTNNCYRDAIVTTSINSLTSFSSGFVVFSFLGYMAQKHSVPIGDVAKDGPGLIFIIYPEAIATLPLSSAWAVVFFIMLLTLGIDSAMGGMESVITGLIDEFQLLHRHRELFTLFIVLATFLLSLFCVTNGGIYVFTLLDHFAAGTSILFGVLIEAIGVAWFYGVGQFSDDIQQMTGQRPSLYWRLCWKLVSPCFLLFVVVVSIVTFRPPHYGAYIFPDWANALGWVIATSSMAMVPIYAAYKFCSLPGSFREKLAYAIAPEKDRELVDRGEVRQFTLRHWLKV

Histamine H1 receptor = Histamine H1 receptor (Homo sapiens, UniProt P35367)
Sequence of Histamine H1 receptor (P35367 whole entry): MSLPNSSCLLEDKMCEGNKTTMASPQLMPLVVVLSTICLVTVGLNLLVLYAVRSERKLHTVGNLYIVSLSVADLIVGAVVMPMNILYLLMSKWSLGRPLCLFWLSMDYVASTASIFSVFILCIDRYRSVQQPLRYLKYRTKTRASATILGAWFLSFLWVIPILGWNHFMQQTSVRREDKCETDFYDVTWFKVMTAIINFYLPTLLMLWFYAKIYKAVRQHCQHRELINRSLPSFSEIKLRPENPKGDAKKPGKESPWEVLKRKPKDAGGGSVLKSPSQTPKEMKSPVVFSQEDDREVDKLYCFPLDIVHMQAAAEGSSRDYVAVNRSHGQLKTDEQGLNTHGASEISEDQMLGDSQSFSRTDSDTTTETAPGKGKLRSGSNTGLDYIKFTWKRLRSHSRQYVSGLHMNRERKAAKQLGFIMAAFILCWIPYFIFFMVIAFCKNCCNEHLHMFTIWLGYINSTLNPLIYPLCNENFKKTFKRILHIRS

Histamine H2 receptor = Histamine H2 receptor (Homo sapiens, UniProt P25021)
Sequence of Histamine H2 receptor (P25021 whole entry): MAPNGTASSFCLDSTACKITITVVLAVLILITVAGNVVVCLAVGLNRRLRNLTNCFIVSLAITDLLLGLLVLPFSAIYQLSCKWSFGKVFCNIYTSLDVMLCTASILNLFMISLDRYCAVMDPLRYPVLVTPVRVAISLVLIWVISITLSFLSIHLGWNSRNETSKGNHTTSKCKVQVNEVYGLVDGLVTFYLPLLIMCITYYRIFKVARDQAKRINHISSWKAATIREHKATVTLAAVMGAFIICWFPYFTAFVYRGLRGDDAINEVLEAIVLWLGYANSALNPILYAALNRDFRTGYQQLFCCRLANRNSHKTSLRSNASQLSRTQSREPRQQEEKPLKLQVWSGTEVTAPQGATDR

[7] = target: Voltage-gated L-type calcium channel (Homo sapiens, UniProt Q13936+Q13698+Q01668+O60840); format: protein assay
[8] = target: T6, Adrenergic receptor alpha-1 (Homo sapiens, UniProt P35348+P25100+P35368); format: protein assay
T6 sequence (P35348 whole entry): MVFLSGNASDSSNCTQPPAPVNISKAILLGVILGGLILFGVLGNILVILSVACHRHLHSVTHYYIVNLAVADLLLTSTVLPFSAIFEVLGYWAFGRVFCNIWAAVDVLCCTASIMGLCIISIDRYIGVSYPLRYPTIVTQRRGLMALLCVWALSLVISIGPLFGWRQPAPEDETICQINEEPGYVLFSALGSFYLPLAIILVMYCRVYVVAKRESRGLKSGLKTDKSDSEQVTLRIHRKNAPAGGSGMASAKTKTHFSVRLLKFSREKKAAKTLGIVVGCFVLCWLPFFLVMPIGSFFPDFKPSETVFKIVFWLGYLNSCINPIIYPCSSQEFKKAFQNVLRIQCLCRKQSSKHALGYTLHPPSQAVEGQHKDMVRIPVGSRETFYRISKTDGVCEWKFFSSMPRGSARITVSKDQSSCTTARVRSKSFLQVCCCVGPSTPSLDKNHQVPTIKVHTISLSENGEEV
T6 sequence (P25100 whole entry): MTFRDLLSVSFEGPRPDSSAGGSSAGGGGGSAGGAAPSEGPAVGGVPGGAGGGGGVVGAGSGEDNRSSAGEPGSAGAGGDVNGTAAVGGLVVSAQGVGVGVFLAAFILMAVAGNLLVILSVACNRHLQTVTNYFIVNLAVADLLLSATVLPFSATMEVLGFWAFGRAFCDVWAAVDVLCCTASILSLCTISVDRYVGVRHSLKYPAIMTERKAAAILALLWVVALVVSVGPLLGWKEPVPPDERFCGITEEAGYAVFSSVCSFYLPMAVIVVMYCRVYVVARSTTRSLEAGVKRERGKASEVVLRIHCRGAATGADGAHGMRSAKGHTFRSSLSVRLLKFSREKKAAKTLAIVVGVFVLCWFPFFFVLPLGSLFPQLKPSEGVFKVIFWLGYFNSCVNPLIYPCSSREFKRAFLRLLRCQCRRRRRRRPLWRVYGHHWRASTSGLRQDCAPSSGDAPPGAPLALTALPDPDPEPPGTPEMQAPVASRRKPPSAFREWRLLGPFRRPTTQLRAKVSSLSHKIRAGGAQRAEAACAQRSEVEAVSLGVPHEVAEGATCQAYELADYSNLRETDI
T6 sequence (P35368 whole entry): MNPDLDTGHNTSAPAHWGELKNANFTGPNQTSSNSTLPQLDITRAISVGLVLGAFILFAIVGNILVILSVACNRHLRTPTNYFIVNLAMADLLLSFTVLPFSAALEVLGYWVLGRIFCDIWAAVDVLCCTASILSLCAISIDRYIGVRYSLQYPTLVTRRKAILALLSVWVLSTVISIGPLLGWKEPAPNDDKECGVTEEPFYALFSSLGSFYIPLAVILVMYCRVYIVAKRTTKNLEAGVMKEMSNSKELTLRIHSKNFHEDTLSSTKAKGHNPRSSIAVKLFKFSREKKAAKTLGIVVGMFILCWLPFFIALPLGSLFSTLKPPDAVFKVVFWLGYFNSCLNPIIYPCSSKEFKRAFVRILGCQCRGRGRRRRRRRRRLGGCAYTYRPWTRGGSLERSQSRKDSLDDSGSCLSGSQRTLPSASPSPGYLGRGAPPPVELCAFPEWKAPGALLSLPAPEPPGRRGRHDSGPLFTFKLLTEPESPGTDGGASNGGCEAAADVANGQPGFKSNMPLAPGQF

Adenosine receptor A1 = Adenosine receptor A1 (Homo sapiens, UniProt P30542)
Sequence of Adenosine receptor A1 (P30542 whole entry): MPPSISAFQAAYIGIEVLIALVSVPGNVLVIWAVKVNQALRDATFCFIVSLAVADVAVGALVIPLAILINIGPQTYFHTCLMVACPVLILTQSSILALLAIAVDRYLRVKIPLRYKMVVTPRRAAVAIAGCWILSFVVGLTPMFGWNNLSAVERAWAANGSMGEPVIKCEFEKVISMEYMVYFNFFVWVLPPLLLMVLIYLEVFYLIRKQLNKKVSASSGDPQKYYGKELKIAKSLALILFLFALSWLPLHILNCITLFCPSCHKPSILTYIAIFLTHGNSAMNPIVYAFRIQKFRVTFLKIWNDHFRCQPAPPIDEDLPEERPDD

[9] = target: 5-hydroxytryptamine receptor 5A (Homo sapiens, UniProt P47898)
D(1A) dopamine receptor = D(1A) dopamine receptor (Homo sapiens, UniProt P21728)
Sequence of D(1A) dopamine receptor (P21728 whole entry): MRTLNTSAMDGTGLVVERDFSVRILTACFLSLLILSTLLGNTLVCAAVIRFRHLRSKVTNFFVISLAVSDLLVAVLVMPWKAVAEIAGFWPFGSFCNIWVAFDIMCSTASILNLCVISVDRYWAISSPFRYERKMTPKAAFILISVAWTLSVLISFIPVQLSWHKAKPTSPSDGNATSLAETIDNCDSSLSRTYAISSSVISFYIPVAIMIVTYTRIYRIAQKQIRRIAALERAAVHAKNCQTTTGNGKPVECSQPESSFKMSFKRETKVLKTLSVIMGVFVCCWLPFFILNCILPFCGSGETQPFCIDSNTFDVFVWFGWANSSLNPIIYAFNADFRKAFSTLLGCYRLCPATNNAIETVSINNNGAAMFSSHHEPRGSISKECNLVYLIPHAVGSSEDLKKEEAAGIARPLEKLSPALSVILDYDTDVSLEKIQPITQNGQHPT

[10] = target: T5, Sodium-dependent dopamine transporter; remark: listed apart in the source
Substance-P receptor = Substance-P receptor (Homo sapiens, UniProt P25103)
Substance-K receptor = Substance-K receptor (Homo sapiens, UniProt P21452)
Vasopressin V1a receptor = Vasopressin V1a receptor (Homo sapiens, UniProt P37288)

Compound: O=C(OCCc1ccc(F)cc1)N1CCN(CCCC(c2ccc(F)cc2)c2ccc(F)cc2)CC1
- IC50 [1]: 1.14 µM
- IC50 [2]: 1.06 µM
- IC50 [3]: 3.45 µM
- IC50 [4]: 1.53 µM
- IC50 [5]: 0.726 µM
- IC50 (Adenosine receptor A3): 4.21 µM
- IC50 (D(3) dopamine receptor): 0.456 µM
- IC50 (D(4) dopamine receptor): 0.338 µM
- IC50 (D(2) dopamine receptor): 2.62 µM
- IC50 (D(1B) dopamine receptor): 1.55 µM
- IC50 [6]: 1.65 µM
- IC50 (Histamine H1 receptor): 1.28 µM
- IC50 (Histamine H2 receptor): 1.25 µM
- IC50 [7]: 2.73 µM
- IC50 [8]: 1.64 µM

Compound: O=C(CCc1ccc(F)cc1)N1CCN(CCCC(c2ccc(F)cc2)c2ccc(F)cc2)CC1
- IC50 [1]: 1.11 µM
- IC50 [2]: 1.03 µM
- IC50 [4]: 1.35 µM
- IC50 [5]: 1.17 µM
- IC50 (Adenosine receptor A3): 5.08 µM
- IC50 (D(3) dopamine receptor): 0.977 µM
- IC50 (D(4) dopamine receptor): 0.716 µM
- IC50 (D(1B) dopamine receptor): 3.02 µM
- IC50 [6]: 1.28 µM
- IC50 (Histamine H1 receptor): 1.66 µM
- IC50 (Histamine H2 receptor): 1.34 µM
- IC50 [7]: 4.3 µM
- IC50 [8]: 1.17 µM

Compound: O=C(NCCCn1c(=O)[nH]c2ccccc21)OCc1cc2c(cc1Cl)OCO2
- IC50 (Adenosine receptor A3): 3.33 µM
- IC50 (Adenosine receptor A1): 0.344 µM

Compound: CCOc1ccc(CCOC(=O)N2CCN(CCCc3ccccc3)CC2)cc1
- IC50 [2]: 0.98 µM
- IC50 [5]: 1.43 µM
- IC50 (Adenosine receptor A3): 4.18 µM

Compound: COc1ccc(CN2CCN(C(=O)CCn3cc(C)c4ccccc43)CC2)cc1OCc1ccccc1
- IC50 (Adenosine receptor A3): 3.73 µM
- IC50 [7]: 4.84 µM

Compound: O=c1[nH]c2ccccc2n(C2CCN(Cc3cc4c(cc3Cl)OCO4)CC2)c1=O
- IC50 (D(4) dopamine receptor): 6.55 µM
- IC50 [6]: 1.52 µM

Compound: N#Cc1ccc(CCOC(=O)N2CCN(CCCC(c3ccc(F)cc3)c3ccc(F)cc3)CC2)cc1
- IC50 [1]: 1.02 µM
- IC50 [2]: 0.715 µM
- IC50 [4]: 2.28 µM
- IC50 [9]: 3.38 µM
- IC50 [5]: 1.44 µM
- IC50 (Adenosine receptor A3): 3.48 µM
- IC50 (D(3) dopamine receptor): 0.195 µM
- IC50 (D(4) dopamine receptor): 0.776 µM
- IC50 (D(2) dopamine receptor): 2.24 µM
- IC50 (D(1A) dopamine receptor): 1.12 µM
- IC50 (D(1B) dopamine receptor): 0.988 µM
- IC50 [6]: 0.996 µM
- IC50 (Histamine H1 receptor): 0.795 µM
- IC50 (Histamine H2 receptor): 1.03 µM
- IC50 [7]: 1.72 µM
- IC50 [8]: 1.1 µM

Compound: COc1ccc(SCCC(=O)N2CCN(Cc3cccc(Oc4ccc(Cl)cc4)c3)CC2)cc1
- IC50 (Adenosine receptor A3): 3.75 µM

Compound: O=C(CCCc1ccccc1)N1CCN(CCCC(c2ccc(F)cc2)c2ccc(F)cc2)CC1
- IC50 [2]: 0.95 µM
- IC50 [3]: 4.07 µM
- IC50 [4]: 7.78 µM
- IC50 [9]: 5.52 µM
- IC50 [5]: 2.13 µM
- IC50 (D(3) dopamine receptor): 0.758 µM
- IC50 (D(4) dopamine receptor): 0.28 µM
- IC50 (D(1A) dopamine receptor): 2.75 µM
- IC50 (D(1B) dopamine receptor): 1.86 µM
- IC50 [6]: 0.954 µM
- IC50 (Histamine H1 receptor): 1.93 µM
- IC50 (Histamine H2 receptor): 1.98 µM
- IC50 [7]: 2.35 µM
- IC50 [8]: 2.19 µM

Compound: O=C(OCc1cccc(Oc2ccccc2)c1)N1CCC2(CC1)C(=O)NCN2c1ccccc1
- IC50 [1]: 2.08 µM
- IC50 [3]: 0.652 µM
- IC50 (Adenosine receptor A3): 1.51 µM
- IC50 [10]: 2.94 µM

Compound: N#Cc1ccc(CCOC(=O)N2CCN(CCCc3ccccc3)CC2)cc1
- IC50 [1]: 1.57 µM
- IC50 [2]: 0.854 µM
- IC50 (D(4) dopamine receptor): 1.41 µM
- IC50 (Histamine H1 receptor): 0.28 µM

Compound: CCOc1ccc(CCNC(=O)N2CCN(CCCC(c3ccc(F)cc3)c3ccc(F)cc3)CC2)cc1
- IC50 [2]: 0.231 µM
- IC50 [3]: 1.42 µM
- IC50 [4]: 0.8 µM
- IC50 [5]: 2.04 µM
- IC50 (Adenosine receptor A3): 2.46 µM
- IC50 (D(3) dopamine receptor): 0.341 µM
- IC50 (D(2) dopamine receptor): 2.89 µM
- IC50 (D(1A) dopamine receptor): 0.967 µM
- IC50 (D(1B) dopamine receptor): 1.45 µM
- IC50 [6]: 0.994 µM
- IC50 (Histamine H1 receptor): 1.82 µM
- IC50 (Histamine H2 receptor): 0.757 µM
- IC50 [7]: 0.86 µM
- IC50 (Substance-P receptor): 0.839 µM
- IC50 [8]: 0.993 µM
- IC50 (Substance-K receptor): 5.18 µM

Compound: O=C(OC1CCc2ccccc21)N1CCC2(CC1)C(=O)NCN2c1ccccc1 (stereo not given)
- IC50 [3]: 0.345 µM
- IC50 (D(3) dopamine receptor): 3.18 µM
- IC50 (Vasopressin V1a receptor): 5.16 µM
